# Assay results published in patent US10526332B2, “Imidazo-pyrimidone compounds, and preparation method and application thereof” (Nanjing Gator Meditech Company, Ltd., priority 2015, dated 2020).
# What was measured:
# MDA-MB-231 = assay: MTS cell proliferation test, MDA-MB-231; conditions: Homo sapiens, MDA-MB-231, 72 h, read-out: MDA231 IC50 (Mean ± SD);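 further: cells settled 24 h before compound addition, MTS absorbance at 490 nm, survival as percent of untreated cells after blank subtraction, IC50 fitted from survival versus concentration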
# Experimental: (§1) The disclosed compounds and their pharmaceutically accepted salts are assayed for their anti-cancer activities by the following method. • MTS Cell Proliferation Test 1. Materials 1.1. […] Cell Lines
# (§2) Two cell lines were used, both HCT116 and MDA-MB-231 were purchased from USATCC.
# (§3) MTS reagent powder was purchased from Promega. Cat #G1111; PMS from Sigma, Cat #P8625; cell culture medium RPMI-1640, Cat #10040562R; DMEM, Cat #0013CVR; 100× sodium pyruvate solution Cat #136007; 100× Penicillin Streptomycin Solution, Cat ⊇15140122; 100× Penicillin Streptomycin Solution, Cat #15140122; 0.25% Trypsin (Parenzyme), Cat #25200-072; and fetal bovine serum, Cat #16000-044 were all purchased from Life Technologies.
# (§4) • Thermo incubator (Format 371); • Heat force Biosafety Cabinet (HF sage 1500); • BioTek Microplate Reader (Synergy 2). 2. […] 2.3 Procedure of MTS Methods:
# (§5) Cells at logarithmic phase were harvested, then digested with 0.25% trypsin, and re-suspense in complete growth medium. 150 uL/well of HCT-116 and MDA-MB-231 were dispensed into 96 well culture plates with 2.5×10^3 cell/well. The plates were pre-incubated in a humidified CO2 incubator at 37° C., 5% CO2) for 24 hours. 50 uL of various concentration of test compounds and reference compound were added. A negative control (only cells and culture medium without compound) and blank control (only culture medium without cells) were set at the same time. The plates were incubated for 72 hr in the incubator. The MTS/PMS solution was prepared and added into 96 well plates according to the test instruction by Promega Corporation. The plates were incubated again for some time, then the absorbance at 490 nm were measured using Biotek Instruments, Inc microplate reader and the cell survival rates calculated. Cell Survival Rate(%)=(At−Ab)/(Ac−Ab)×100% where, • At=Absorbance value of test compound • Ab=Absorbance value of blank • Ac=Absorbance value of control 3. Results
# HCT116 = assay: MTS cell proliferation test, HCT116; conditions: Homo sapiens, HCT-116, 72 h, read-out: HCT116 IC50 (Mean ± SD);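 further: absorbance at 490 nm after MTS/PMS addition, survival relative to untreated cells (100%) after blank subtraction, IC50 from the concentration–survival curve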
# Experimental: as §1, §2, §3, §4, §5
Compound,IC50 (MDA-MB-231) [nM],IC50 (HCT116) [nM]
"Cc1cccc(CN2CCC3=C(C2)C(=O)N(Cc2ccccc2Br)C2=NCCN23)c1 [Compound I-33, 4-(2-bromobenzyl)-7-(3-methylbenzyl)-1,2,6,7,8,9-hexahydroimidazo[1,2-a]pyrido[3,4-e]pyrimidin-5(4H)-one]",860 ± 136,720 ± 1
"Cc1cccc(CN2CCC3=C(C2)C(=O)N(Cc2ccccc2C)C2=NCCN23)c1 [Compound I-34, 4-(2-methylbenzyl)-7-(3-methylbenzyl)-1,2,6,7,8,9-hexahydroimidazo[1,2-a]pyrido[3,4-e]pyrimidin-5(4H)-one]",730 ± 2,730 ± 1
"O=C1C2=C(CCN(Cc3cccc(Cl)c3)C2)N2CCN=C2N1Cc1ccccc1Cl [Compound I-36, 4-(2-chlorobenzyl)-7-(3-chlorobenzyl)-1,2,6,7,8,9-hexahydroimidazo[1,2-a]pyrido[3,4-e]pyrimidin-5(4H)-one]",740 ± 1,720
"O=C1C2=C(CCN(Cc3cccc(Cl)c3)C2)N2CCN=C2N1Cc1ccccc1Br [Compound I-37, 4-(2-bromobenzyl)-7-(3-chlorobenzyl)-1,2,6,7,8,9-hexahydroimidazo[1,2-a]pyrido[3,4-e]pyrimidin-5(4H)-one]",2330 ± 95,2310 ± 33
"O=C1C2=C(CCN(Cc3ccccc3)C2)N2CCN=C2N1Cc1ccc(Cl)cc1Cl [Compound I-41, 7-benzyl-4-(2,4-dichlorobenzyl)-1,2,6,7,8,9-hexahydroimidazo[1,2-a]pyrido[3,4-e]pyrimidin-5(4H)-one]",2010 ± 10,1730 ± 250
"O=C1C2=C(CCN(Cc3cccc(F)c3)C2)N2CCN=C2N1Cc1ccccc1F [Compound I-49, 4-(2-fluorobenzyl)-7-(3-fluorobenzyl)-1,2,6,7,8,9-hexahydroimidazo[1,2-a]pyrido[3,4-e]pyrimidin-5(4H)-one]",930 ± 98,580 ± 43
"O=C1C2=C(CCN(Cc3cccc(F)c3)C2)N2CCN=C2N1Cc1ccccc1Cl [Compound I-51, 4-(2-chlorobenzyl)-7-(3-fluorobenzyl)-1,2,6,7,8,9-hexahydroimidazo[1,2-a]pyrido[3,4-e]pyrimidin-5(4H)-one]",730 ± 4,700 ± 1
"O=C1C2=C(CCN(Cc3cccc(F)c3)C2)N2CCN=C2N1Cc1ccccc1Br [Compound I-52, 4-(2-bromobenzyl)-7-(3-fluorobenzyl)-1,2,6,7,8,9-hexahydroimidazo[1,2-a]pyrido[3,4-e]pyrimidin-5(4H)-one]",2070 ± 115,1180 ± 155
"O=C1C2=C(CCN(Cc3cccc(Br)c3)C2)N2CCN=C2N1Cc1ccccc1F [Compound I-53, 7-(3-bromobenzyl)-4-(2-fluorobenzyl)-1,2,6,7,8,9-hexahydroimidazo[1,2-a]pyrido[3,4-e]pyrimidin-5(4H)-one]",730 ± 2,700 ± 1
"Cc1ccccc1CN1C(=O)C2=C(CCN(Cc3ccccc3)C2)N2CCN=C12 [TIC10, 7-benzyl-4-(2-methylbenzyl)-1,2,6,7,8,9-hexahydroimidazo[1,2-a]pyrido[3,4-e]pyrimidin-5(4H)-one, reference compound]",790 ± 80,1060 ± 240

# Second part, the molecule after the results:
IC50 (MDA-MB-231) [nM],IC50 (HCT116) [nM],Compound
4210 ± 634,6210 ± 77,"O=C1C2=C(CCN(Cc3cccc(Cl)c3)C2)N2CCN=C2N1Cc1ccccc1C(F)(F)F [Compound I-35, 7-(3-chlorobenzyl)-4-(2-(trifluoromethyl)benzyl)-1,2,6,7,8,9-hexahydroimidazo[1,2-a]pyrido[3,4-e]pyrimidin-5(4H)-one]"
400 ± 30,240 ± 20,"O=C1C2=C(CCN(Cc3ccccc3)C2)N2CCN=C2N1Cc1cccc(C(F)(F)F)c1 [Compound I-38, 7-benzyl-4-(3-(trifluoromethyl)benzyl)-1,2,6,7,8,9-hexahydroimidazo[1,2-a]pyrido[3,4-e]pyrimidin-5(4H)-one]"
50,30,"O=C1C2=C(CCN(Cc3ccccc3)C2)N2CCN=C2N1Cc1ccc(C(F)(F)F)cc1 [Compound I-39, 7-benzyl-4-(4-(trifluoromethyl)benzyl)-1,2,6,7,8,9-hexahydroimidazo[1,2-a]pyrido[3,4-e]pyrimidin-5(4H)-one]"
120 ± 10,80,"O=C1C2=C(CCN(Cc3ccccc3)C2)N2CCN=C2N1Cc1ccc(Cl)c(Cl)c1 [Compound I-40, 7-benzyl-4-(3,4-dichlorobenzyl)-1,2,6,7,8,9-hexahydroimidazo[1,2-a]pyrido[3,4-e]pyrimidin-5(4H)-one]"
1070 ± 10,730,"O=C1C2=C(CCN(Cc3ccccc3)C2)N2CCN=C2N1Cc1ccc(Cl)c(C(F)(F)F)c1 [Compound I-42, 7-benzyl-4-(4-chloro-3-(trifluoromethyl)benzyl)-1,2,6,7,8,9-hexahydroimidazo[1,2-a]pyrido[3,4-e]pyrimidin-5(4H)-one]"
2850 ± 770,4290 ± 210,"O=C1C2=C(CCN(Cc3ccccc3)C2)N2CCN=C2N1Cc1ccc(Cl)cc1C(F)(F)F [Compound I-43, 7-benzyl-4-(4-chloro-2-(trifluoromethyl)benzyl)-1,2,6,7,8,9-hexahydroimidazo[1,2-a]pyrido[3,4-e]pyrimidin-5(4H)-one]"
1770 ± 429,770 ± 14,"O=C1C2=C(CCN(Cc3cccc(F)c3)C2)N2CCN=C2N1Cc1ccccc1C(F)(F)F [Compound I-50, 7-(3-fluorobenzyl)-4-(2-(trifluoromethyl)benzyl)-1,2,6,7,8,9-hexahydroimidazo[1,2-a]pyrido[3,4-e]pyrimidin-5(4H)-one]"
24800 ± 2580,21410 ± 34,"O=C1C2=C(CCN(Cc3cccc(Br)c3)C2)N2CCN=C2N1Cc1ccccc1C(F)(F)F [Compound I-54, 7-(3-bromobenzyl)-4-(2-(trifluoromethyl)benzyl)-1,2,6,7,8,9-hexahydroimidazo[1,2-a]pyrido[3,4-e]pyrimidin-5(4H)-one]"
2190 ± 39,2140 ± 1,"O=C1C2=C(CN(Cc3ccccc3)C2)N2CCN=C2N1Cc1ccccc1Br [Compound I-55, 2-Benzyl-5-(2-bromobenzyl)-2,3,7,8-tetrahydro-1H-imidazo[1,2-a]pyrrolo[3,4-e]pyrimidin-4(5H)-one]"
2050 ± 40,2050 ± 30,"O=C1C2=C(CN(Cc3ccccc3)C2)N2CCN=C2N1Cc1ccc(Cl)cc1Cl [Compound I-56, 2-benzyl-5-(2,4-dichlorobenzyl)-2,3,7,8-tetrahydro-1H-imidazo[1,2-a]pyrrolo[3,4-e]pyrimidin-4(5H)-one]"
2100 ± 70,2080 ± 10,"O=C1C2=C(CN(Cc3ccccc3)C2)N2CCN=C2N1Cc1ccc(Cl)c(C(F)(F)F)c1 [Compound I-57, 2-benzyl-5-(4-chloro-3-(trifluoromethyl)benzyl)-2,3,7,8-tetrahydro-1H-imidazo[1,2-a]pyrrolo[3,4-e]pyrimidin-4(5H)-one]"
